# In ChEMBL document CHEMBL3286089, “Multiparameter optimization in CNS drug discovery: design of pyrimido[4,5-d]azepines as potent 5-hydroxytryptamine 2C (5-HT₂C) receptor agonists with exquisite functional selectivity over 5-HT₂A and 5-HT₂B receptors” (J Med Chem, 2014):
# Assays:
# [1] = Octanol-water partition coefficient, log D of the compound at pH 7.4; format: physicochemical
# [2] = Dissociation constant, pKa of the compound; format: physicochemical
# [3] = Intrinsic clearance in human liver microsomes; format: ADME; conditions: read-out: CLH
# [4] = Intrinsic clearance in rat liver microsomes; format: ADME; conditions: read-out: CLH
# [5] = Intrinsic clearance in dog liver microsomes; format: ADME, Canis lupus familiaris
# [6] = Intrinsic clearance in human hepatocytes assessed as 10^6 cells; format: ADME, cell-based, Hepatocyte; conditions: read-out: CLH
logD [1],pKa [2],microsomal CLint [3] [µL/min/mg],microsomal CLint [4] [µL/min/mg],microsomal CLint [5] [µL/min/mg],hepatocyte CLint [6] [µL/min/1e6 cells],Structure (SMILES)
0.1,–,–,–,–,–,Nc1nc(Cc2ccccc2)nc2c1CCNCC2
0.7,8.6,16,329,114,3.4,CNc1nc(Cc2ccccc2)nc2c1CCNC[C@@H]2C
0.7,–,–,–,–,–,CNc1nc(Cc2ccccc2)nc2c1CCNC[C@H]2C
